Values after ≈ are worked out from the molar mass of the structure shown. Active and inactive are the calls of the source. The rule behind the calls is not given here.
How the values were obtained:
[1] = tested on: Mycolicibacterium smegmatis; assay: Bactericidal activity against Mycobacterium smegmatis MC2 155 assessed as log reduction in bacterial colonies at 3.2 uM measured after 6 hrs by time-kill assay; assay type: functional, str. MC2 155
[2] = tested on: Mycolicibacterium smegmatis; assay: Induction of impaired membrane integrity in Mycobacterium smegmatis MC2 155 assessed as reduction in membrane integrity at 0.5 times MIC by SYTO-9/propium iodide stain based Baclight assay relative to control; assay type: functional, str. MC2 155; parameters: scale not given: the % may be the effect or the level left
[3] = Clearance in Sprague-Dawley rat at 2 mg/kg, iv administered as single bolus dose measured by LC-MS/MS method; assay type: ADME, organism-based; settings: in vivo
[4] = AUC (0 to infinity) in Sprague-Dawley rat at 2 mg/kg, iv administered as single bolus dose measured by LC-MS/MS method; assay type: ADME, organism-based; parameters: dose 2 mg/kg, route intravenous, time infinity; settings: in vivo
[5] = Cmax in Sprague-Dawley rat at 2 mg/kg, iv administered as single bolus dose measured by LC-MS/MS method; assay type: ADME, organism-based; parameters: dose 2 mg/kg, route intravenous; settings: in vivo
[6] = tested on: Mycolicibacterium smegmatis; assay: Induction of membrane integrity impairment in Mycobacterium smegmatis MC2 155 at 2 times MIC by SYTO-9/propium iodide staining based Baclight assay relative to control; assay type: functional, str. MC2 155
[7] = Tmax in Sprague-Dawley rat at 2 mg/kg administered via oral gavage measured by LC-MS/MS method; assay type: ADME, organism-based; settings: in vivo
[8] = Oral bioavailability in Sprague-Dawley rat at 2 mg/kg measured by LC-MS/MS method; assay type: ADME, organism-based; settings: in vivo
[9] = tested on: Mycolicibacterium smegmatis; assay: Bactericidal activity against Mycobacterium smegmatis MC2 155 assessed as log reduction in bacterial colonies at 2 times MIC measured after 3 hrs by time-kill assay; assay type: functional, str. MC2 155
[10] = tested on: Mycolicibacterium smegmatis; assay: Induction of membrane integrity impairment in Mycobacterium smegmatis MC2 155 at 4 times MIC measured after 24 hrs by SYTO-9/propium iodide staining based Baclight assay relative to control; assay type: functional, str. MC2 155
[11] = Terminal half life in Sprague-Dawley rat at 2 mg/kg, iv administered as single bolus dose measured by LC-MS/MS method; assay type: ADME, organism-based; settings: in vivo, read-out: beta t1/2 (converted)
[12] = tested on: Mycolicibacterium smegmatis; assay: Induction of impaired membrane integrity in Mycobacterium smegmatis MC2 155 assessed as reduction in membrane integrity at MIC by SYTO-9/propium iodide stain based Baclight assay relative to control; assay type: functional, str. MC2 155; parameters: scale not given: the % may be the effect or the level left
Lipid bilayer [13] = assay: Induction of membrane damage in CI/DOPG/DOPI large unilamellar vesicles assessed as calcein leakage at lower compound to lipid ratio by fluorescence based […] assay relative to control
Lipid bilayer [14] = assay: Induction of membrane damage in CI/DOPG/DOPI large unilamellar vesicles assessed as calcein leakage at 1:2 compound to lipid ratio by fluorescence based […] assay relative to control
[15] = Cmax in Sprague-Dawley rat at 2 mg/kg administered via oral gavage measured by LC-MS/MS method; assay type: ADME, organism-based; parameters: dose 2 mg/kg, route oral; settings: in vivo
[16] = tested on: Mycolicibacterium smegmatis; assay: Bactericidal activity against Mycobacterium smegmatis MC2 155 assessed as log reduction in bacterial colonies at 2 times MIC measured after 6 hrs by time-kill assay; assay type: functional, str. MC2 155
[17] = Volume of distribution in Sprague-Dawley rat at 2 mg/kg, iv administered as single bolus dose measured by LC-MS/MS method; assay type: ADME, organism-based; settings: in vivo
[18] = tested on: Mycolicibacterium smegmatis; assay: Bactericidal activity against Mycobacterium smegmatis MC2 155 assessed as log reduction in bacterial colonies at 4 times MIC measured after 3 hrs by time-kill assay; assay type: functional, str. MC2 155
[19] = AUC (0 to infinity) in Sprague-Dawley rat at 2 mg/kg, administered via oral gavage measured by LC-MS/MS method; assay type: ADME, organism-based; parameters: dose 2 mg/kg, time infinity, route oral; settings: in vivo
[20] = tested on: Mycolicibacterium smegmatis; assay: Induction of membrane integrity impairment in Mycobacterium smegmatis MC2 155 at 2 to 4 times MIC measured after 3 hrs by SYTO-9/propium iodide staining based Baclight assay relative to control; assay type: functional, str. MC2 155
[21] = tested on: Mycolicibacterium smegmatis; assay: Bactericidal activity against Mycobacterium smegmatis MC2 155 measured after 2 days by time-kill assay; assay type: functional; settings: str. MC2 155
[22] = Terminal half life in Sprague-Dawley rat at 2 mg/kg administered via oral gavage measured by LC-MS/MS method; assay type: ADME, organism-based; settings: in vivo, read-out: beta t1/2 (converted)
[23] = Hemolytic activity against New Zealand white rabbit RBC assessed as hemoglobin release measured after 1 hr; assay type: ADME, cell-based, Oryctolagus cuniculus, Erythrocyte; settings: red blood cells
[24] = tested on: Mycobacterium tuberculosis; assay: Antimycobacterial activity against Mycobacterium tuberculosis clinical isolate 01;057 assessed as reduction in 2 log10 bacterial colonies measured after 14 to 21 days by agar dilution method; assay type: functional
[25] = tested on: Mycobacterium tuberculosis; assay: Antimycobacterial activity against Mycobacterium tuberculosis H37Rv ATCC 27294 assessed as reduction in 2 log10 bacterial colonies measured after 14 to 21 days by agar dilution method; assay type: functional
[26] = tested on: Mycolicibacterium smegmatis; assay: Bactericidal activity against Mycobacterium smegmatis MC2 155 assessed as log reduction in bacterial colonies at 4 times MIC measured after 24 hrs by time-kill assay; assay type: functional, str. MC2 155
Lipid bilayer [27] = assay: Induction of membrane damage in CI/DOPG/DOPI large unilamellar vesicles assessed as calcein leakage at 1:4 compound to lipid ratio by fluorescence based […] assay relative to control
Lipid bilayer [28] = assay: Induction of membrane damage in CI/DOPG/DOPI large unilamellar vesicles assessed as calcein leakage at 1:8 compound to lipid ratio by fluorescence based […] assay relative to control
[29] = tested on: Mycolicibacterium smegmatis; assay: Induction of membrane disruption in Mycobacterium smegmatis MC2 155 assessed as increased cytoplasmic membrane permeability at 60 uM up to 3 hrs by Sytox green uptake assay; assay type: functional; settings: str. MC2 155

**Q.** Which Activity [1] does the source give for `CCCN(CCC)CCCCOc1cc2oc3cc(OCCCCN(CCC)CCC)c(OC)c(CC=C(C)C)c3c(=O)c2c(O)c1CC=C(C)C` here?
**A.** 1.6

**Q.** And the Activity [2]?
**A.** <15%

**Q.** What about the CL [3] of the same molecule?
**A.** 24.7 mL/min/kg

**Q.** And the AUC [4]?
**A.** 22780 ng·h/mL

**Q.** And the Cmax [5]?
**A.** 1500 ng/mL

**Q.** And the Activity [6]?
**A.** 78.8%

**Q.** What about the Tmax [7] of the same molecule?
**A.** 4 h

**Q.** And the bioavailability [8]?
**A.** 14 to 15%

**Q.** And the Activity [9]?
**A.** 2.85

**Q.** And the Activity [10]?
**A.** 76.9%

**Q.** And the half-life [11]?
**A.** 9.93 h

**Q.** And the Activity [12]?
**A.** 28%

**Q.** What about the Activity (Lipid bilayer [13]) of the same molecule?
**A.** < 10%

**Q.** And the Activity (Lipid bilayer [14])?
**A.** 13.3%

**Q.** And the Cmax [15]?
**A.** 320 ng/mL

**Q.** And the Activity [16]?
**A.** 4.15

**Q.** What about the Vd [17] of the same molecule?
**A.** 1.28 L/kg

**Q.** What about the Activity [18] of the same molecule?
**A.** 4.15

**Q.** What about the AUC(0-inf) [19] of the same molecule?
**A.** 3300 ng·h/mL

**Q.** And the Activity [20]?
**A.** >80%

**Q.** And the Activity [21]?
**A.** Dose-dependent effect

**Q.** What about the half-life [22] of the same molecule?
**A.** 4.79 h

**Q.** What about the HC50 at 1 h [23] of the same molecule?
**A.** > 277 µM

**Q.** Which results are given for `COc1c(OCCCCN2CCOCC2)cc2oc3cc(OCCCCN4CCOCC4)c(CC=C(C)C)c(O)c3c(=O)c2c1CC=C(C)C`?
**A.** MIC [24]: 4 µg/mL (≈ 5.77 µM); MIC [25]: 4 µg/mL (≈ 5.77 µM); HC50 at 1 h [23]: > 289 µM; Activity [26]: 2.4

**Q.** Which results are given for `CCN(CC)CCCCOc1cc2oc3cc(OCCCCN(CC)CC)c(OC)c(CC=C(C)C)c3c(=O)c2c(O)c1CC=C(C)C`?
**A.** Activity [2]: <15%; Activity (Lipid bilayer [27]): 23.4%; Activity [10]: 62.5%; Activity (Lipid bilayer [14]): 47%; Activity (Lipid bilayer [28]): 14.6%; MIC [24]: 4 µg/mL (≈ 6.02 µM); Activity [20]: >80%; Activity [29]: Active; MIC [25]: 2 µg/mL (≈ 3.01 µM)
